Earlier results as cited in patent US11345666B2, “Phenyl and pyridinyl substituted imidazoles as modulators of RORγT” (Janssen Pharmaceutica NV, priority 2018, dated 2022).

Experiments:
[1] = tested on: Th17-dependent learned helplessness; conditions: mice; cited from earlier work
obese diabetic mice = conditions: cited from earlier work

In the case of `CC(=O)Nc1nc(C)c(S(=O)(=O)Nc2ccc(C(O)(C(F)(F)F)C(F)(F)F)cc2)s1` [SR1001], the Th17-dependent learned helplessness [1] is listed as “reduced”.
For `CC(=O)N1CCN(Cc2ccc(-c3ccc(C(O)(C(F)(F)F)C(F)(F)F)cc3)cc2)CC1` [SR1555], the body weight (obese diabetic mice) is given as “reduced”, the fat mass (obese diabetic mice) is given as “significant reduction” and the food intake (obese diabetic mice) is given as “modest reduction”. The insulin sensitivity (obese diabetic mice) was “improved”.
